Experimental data reported in ChEMBL document CHEMBL3885881, “DrugMatrix”.

Organism: Rattus norvegicus
Experiment: DrugMatrix - Regimen: Daily Repeat
Assay type: toxicity, organism-based, Sprague-Dawley
Design: regimen Daily Repeat, gender Male, age 6-8 weeks
Details: in vivo, po, route oral GAVAGE, vehicle .5 % CMC; for ALANINE AMINOTRANSFERASE / ALBUMIN / ALKALINE PHOSPHATASE / ASPARTATE AMINOTRANSFERASE / BLOOD UREA NITROGEN / CARBON DIOXIDE / CHLORIDE / CHOLESTEROL / CREATINE PHOSPHOKINASE / CREATININE / GLUCOSE / LACTATE DEHYDROGENASE / LIPASE / PHOSPHORUS / POTASSIUM / SODIUM / TOTAL BILIRUBIN / TOTAL PROTEIN / URIC ACID: tissue Plasma; for ABSOLUTE BASOPHIL / ABSOLUTE EOSINOPHIL / ABSOLUTE LYMPHOCYTE / ABSOLUTE MONOCYTE / ABSOLUTE SEGMENTED NEUTROPHIL / BASOPHIL / EOSINOPHIL / ERYTHROCYTE COUNT / HEMATOCRIT / HEMOGLOBIN / LEUKOCYTE COUNT / LYMPHOCYTE / MEAN CORPUSCULAR HEMOGLOBIN / MEAN CORPUSCULAR HEMOGLOBIN CONCENTRATION / MEAN CORPUSCULAR VOLUME / MONOCYTE / NEUTROPHIL / NUCLEATED RED BLOOD CELLS / PLATELET COUNT: tissue Blood
[1] = 10 mg/kg, 72 h, dose level Low, time 3 day
[2] = 10 mg/kg, 120 h, dose level Low, time 5 day
[3] = 2500 mg/kg, 72 h, dose level High, time 3 day

**Q.** What does the source list for `CCOC(=O)[C@H](CCc1ccccc1)N[C@@H](C)C(=O)N1Cc2ccccc2C[C@H]1C(=O)O`?
**A.** ALANINE AMINOTRANSFERASE [1]: 57.33 u/L; ALBUMIN [1]: 4.43 G/DL; ALKALINE PHOSPHATASE [1]: 414 u/L; ASPARTATE AMINOTRANSFERASE [1]: 111.67 u/L; BLOOD UREA NITROGEN [1]: 19.33 mg/dL; CARBON DIOXIDE [1]: 27 mmol/L; CHLORIDE [1]: 101.33 MEQ/L; CHOLESTEROL [1]: 71.67 mg/dL; CREATINE PHOSPHOKINASE [1]: 1227 u/L; CREATININE [1]: 0.15 mg/dL; GLUCOSE [1]: 179.67 mg/dL; LACTATE DEHYDROGENASE [1]: 229.67 u/L; LIPASE [1]: 10 u/L; PHOSPHORUS [1]: 12.13 mg/dL; POTASSIUM [1]: 6.89 MEQ/L; SODIUM [1]: 142.53 MEQ/L; TOTAL BILIRUBIN [1]: 0.23 mg/dL; TOTAL PROTEIN [1]: 6.1 G/DL; URIC ACID [1]: 1.73 mg/dL; ABSOLUTE BASOPHIL [2]: 0 CELLS/uL; ABSOLUTE EOSINOPHIL [2]: 0 CELLS/uL; ABSOLUTE LYMPHOCYTE [2]: 9146.67 CELLS/uL; ABSOLUTE MONOCYTE [2]: 149.33 CELLS/uL; ABSOLUTE SEGMENTED NEUTROPHIL [2]: 970.67 CELLS/uL; BASOPHIL [2]: 0%; EOSINOPHIL [2]: 0%; ERYTHROCYTE COUNT [2]: 5.39 x10E6/uL; HEMATOCRIT [2]: 34.63%; HEMOGLOBIN [2]: 13.67 G/DL; LEUKOCYTE COUNT [2]: 10.27 x10E3/uL; LYMPHOCYTE [2]: 89.33%; MEAN CORPUSCULAR HEMOGLOBIN [2]: 25.4 pg; MEAN CORPUSCULAR HEMOGLOBIN CONCENTRATION [2]: 39.47 G/DL; MEAN CORPUSCULAR VOLUME [2]: 64.27 fL; MONOCYTE [2]: 1.33%; NEUTROPHIL [2]: 9.33%; NUCLEATED RED BLOOD CELLS [2]: 0 /100WBC; PLATELET COUNT [2]: 1332.67 x10E3/uL; ALANINE AMINOTRANSFERASE [2]: 53 u/L; ALBUMIN [2]: 4.43 G/DL; ALKALINE PHOSPHATASE [2]: 351.67 u/L; ASPARTATE AMINOTRANSFERASE [2]: 77 u/L; BLOOD UREA NITROGEN [2]: 17.33 mg/dL; CARBON DIOXIDE [2]: 31.33 mmol/L; CHLORIDE [2]: 101.33 MEQ/L; CHOLESTEROL [2]: 100.67 mg/dL; CREATINE PHOSPHOKINASE [2]: 265.67 u/L; CREATININE [2]: 0.14 mg/dL; GLUCOSE [2]: 137.33 mg/dL; LACTATE DEHYDROGENASE [2]: 201.67 u/L; LIPASE [2]: 10 u/L; PHOSPHORUS [2]: 11.8 mg/dL; POTASSIUM [2]: 6.69 MEQ/L; SODIUM [2]: 143.93 MEQ/L; TOTAL BILIRUBIN [2]: 0.23 mg/dL; TOTAL PROTEIN [2]: 6.3 G/DL; URIC ACID [2]: 1.2 mg/dL; ABSOLUTE BASOPHIL [3]: 0 CELLS/uL; ABSOLUTE EOSINOPHIL [3]: 56.33 CELLS/uL; ABSOLUTE LYMPHOCYTE [3]: 14978 CELLS/uL; ABSOLUTE MONOCYTE [3]: 125.33 CELLS/uL; ABSOLUTE SEGMENTED NEUTROPHIL [3]: 2373.67 CELLS/uL; BASOPHIL [3]: 0%; EOSINOPHIL [3]: 0.33%; ERYTHROCYTE COUNT [3]: 5.38 x10E6/uL; HEMATOCRIT [3]: 35.27%; HEMOGLOBIN [3]: 13.67 G/DL; LEUKOCYTE COUNT [3]: 17.53 x10E3/uL; LYMPHOCYTE [3]: 85.67%; MEAN CORPUSCULAR HEMOGLOBIN [3]: 25.4 pg; MEAN CORPUSCULAR HEMOGLOBIN CONCENTRATION [3]: 38.77 G/DL; MEAN CORPUSCULAR VOLUME [3]: 65.5 fL; MONOCYTE [3]: 0.67%; NEUTROPHIL [3]: 13.33%; NUCLEATED RED BLOOD CELLS [3]: 0 /100WBC; PLATELET COUNT [3]: 1317 x10E3/uL; ALANINE AMINOTRANSFERASE [3]: 63.33 u/L; ALBUMIN [3]: 4.37 G/DL; ALKALINE PHOSPHATASE [3]: 310 u/L; ASPARTATE AMINOTRANSFERASE [3]: 80.67 u/L; BLOOD UREA NITROGEN [3]: 19.33 mg/dL; CARBON DIOXIDE [3]: 28.67 mmol/L; CHLORIDE [3]: 98.67 MEQ/L; CHOLESTEROL [3]: 107 mg/dL; CREATINE PHOSPHOKINASE [3]: 346.67 u/L; CREATININE [3]: 0.21 mg/dL; GLUCOSE [3]: 155.67 mg/dL; LACTATE DEHYDROGENASE [3]: 272.33 u/L; LIPASE [3]: 12.33 u/L; PHOSPHORUS [3]: 12.8 mg/dL; POTASSIUM [3]: 6.92 MEQ/L; SODIUM [3]: 140.37 MEQ/L; TOTAL BILIRUBIN [3]: 0.17 mg/dL; TOTAL PROTEIN [3]: 6.17 G/DL; URIC ACID [3]: 1.6 mg/dL
